Reference: the supplement of paper PMC10307832

Columns and labels:
Test in all cases: relative viability (nuclei count vs DMSO), 5 days (fraction); higher = more cells survive
Obatoclax + AZD7762 = compound: COC1=CC(c2cc3ccccc3[nH]2)=N/C1=C\c1[nH]c(C)cc1C [Obatoclax] + NC(=O)Nc1cc(-c2cccc(F)c2)sc1C(=O)N[C@H]1CCCNC1 [AZD7762] (partner 0.2 µM)
Procedure, shortened: (§1)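 Five library-drug doses in √10 steps were combined with a fixed anchor-drug dose, or a single drug was given alone, by pin tool to lung cancer cell lines in 1536-well plates the day after seeding. Nuclei were stained and counted after 5 days. Relative viability is the nuclei count in treated wells over that in vehicle wells, taken as the median of duplicate plates.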

[1] = compound: CC1=CC(=NN1)NC2=CC(=NC(=N2)/C=C/C3=CC=CC=C3)N4CCN(CC4)C + CS(=O)(=O)CCNCc1ccc(-c2ccc3ncnc(Nc4ccc(OCc5cccc(F)c5)c(Cl)c4)c3c2)o1 [Lapatinib] (partner 2 µM)
Procedure, shortened: as §1

Bortezomib + Luminespib = compound: CC(C)C[C@H](NC(=O)[C@H](Cc1ccccc1)NC(=O)c1cnccn1)B(O)O [Bortezomib] + CCNC(=O)c1noc(-c2cc(C(C)C)c(O)cc2O)c1-c1ccc(CN2CCOCC2)cc1 [Luminespib] (partner 0.01 µM)
Procedure, shortened: as §1

Bortezomib + Alpelisib = compound: CC(C)C[C@H](NC(=O)[C@H](Cc1ccccc1)NC(=O)c1cnccn1)B(O)O [Bortezomib] + Cc1nc(NC(=O)N2CCC[C@H]2C(N)=O)sc1-c1ccnc(C(C)(C)C(F)(F)F)c1 [Alpelisib] (partner 2 µM)
Procedure, shortened: as §1

Cell Line	relative viability (Obatoclax + AZD7762; first compound 0.01 µM)	relative viability (Obatoclax + AZD7762; first compound 0.03162 µM)	relative viability (Obatoclax + AZD7762; first compound 0.1 µM)	relative viability (Obatoclax + AZD7762; first compound 0.3162 µM)	relative viability (Obatoclax + AZD7762; first compound 1 µM)	relative viability ([1]; first compound 0.08 µM)	relative viability ([1]; first compound 0.253 µM)	relative viability ([1]; first compound 0.8 µM)	relative viability ([1]; first compound 2.53 µM)	relative viability ([1]; first compound 8 µM)	relative viability (Bortezomib + Luminespib; first compound 0.0002 µM)	relative viability (Bortezomib + Luminespib; first compound 0.000632 µM)	relative viability (Bortezomib + Luminespib; first compound 0.002 µM)	relative viability (Bortezomib + Luminespib; first compound 0.006325 µM)	relative viability (Bortezomib + Luminespib; first compound 0.02 µM)	relative viability (Bortezomib + Alpelisib; first compound 0.0002 µM)	relative viability (Bortezomib + Alpelisib; first compound 0.000632 µM)	relative viability (Bortezomib + Alpelisib; first compound 0.002 µM)	relative viability (Bortezomib + Alpelisib; first compound 0.006325 µM)	relative viability (Bortezomib + Alpelisib; first compound 0.02 µM)
H3255	0.874	0.848	0.725	0.785	0.762	0.244	0.211	0.478	0.203	0.123	0.765	0.856	1.02	0.386	0.271	0.688	0.696	0.479	0.156	0.163
HARA	0.379	0.237	0.397	0.173	0.244	0.776	0.874	0.611	0.163	0.158	0.718	0.77	0.607	0.0345	0.0465	0.808	0.673	0.949	0.0583	0.0865
HCC-15	1.04	1.34	1.21	1.25	1.36	0.867	0.856	0.835	0.319	0.167	0.322	0.343	0.405	0.0965	0.0909	0.845	0.911	0.833	0.307	0.0846
HCC-44	0.95	1.03	1.14	1.01	0.978	1.02	1.07	0.955	0.85	0.101	0.983	0.984	0.585	0.187	0.197	0.831	0.776	0.84	0.0994	0.115
HCC-827	0.244	0.234	0.215	0.202	0.261	0.201	0.168	0.212	0.146	0.124	0.533	0.588	0.415	0.152	0.122	1.12	0.948	0.8	0.149	0.126
HOP-62	0.402	0.519	0.515	0.59	0.508	1.06	0.973	0.956	0.558	0.307	0.921	0.907	0.67	0.288	0.0887	0.938	1.08	0.33	0.0928	0.067
LC-2-ad	0.857	0.888	0.777	0.836	0.438	0.701	0.928	0.899	0.0949	0.0594	0.972	1.06	0.64	0.226	0.214	0.838		0.898	0.0898	0.0932
LCLC-97TM1	0.218		0.203	0.229	0.206	1.29	1.06	0.922	0.158	0.0857	0.674	0.756	0.687	0.123	0.139	0.245	0.242	0.113	0.11	0.114
